{"source": "ChEMBL document CHEMBL1201862", "about": "“PubChem BioAssay data set” (2004)", "assay_in_all_cases": "NCI anticancer screen, dose series, 48 h", "key": {"SK-MEL-28": {"system": "SK-MEL-28"}, "COLO 205": {"system": "COLO 205"}, "A549": {"system": "A549"}, "SNB-75": {"system": "SNB-75"}, "SF-268": {"system": "SF-268"}, "RXF 393": {"system": "RXF 393"}, "SNB-78": {"system": "SNB-78"}, "OVCAR-4": {"system": "OVCAR-4"}, "DLD-1": {"system": "DLD-1"}, "SF-295": {"system": "SF-295"}, "NCI-H23": {"system": "NCI-H23"}, "SK-OV-3": {"system": "SK-OV-3"}, "SK-MEL-2": {"system": "SK-MEL-2"}, "Malme-3M": {"system": "Malme-3M"}, "UACC-257": {"system": "UACC-257"}, "HCT-15": {"system": "HCT-15"}, "UACC-62": {"system": "UACC-62"}, "SK-MEL-5": {"system": "SK-MEL-5"}, "NCI-H460": {"system": "NCI-H460"}, "SF-539": {"system": "SF-539"}, "HOP-62": {"system": "HOP-62"}, "NCI-H522": {"system": "NCI-H522"}, "DMS-114": {"system": "DMS-114"}, "SR": {"system": "SR"}, "LXFL 529": {"system": "LXFL 529"}, "XF498": {"system": "XF498"}, "SN12C": {"system": "SN12C"}, "RPMI-8226": {"system": "RPMI-8226"}, "SNB-19": {"system": "SNB-19"}, "UO-31": {"system": "UO-31"}, "HCT-116": {"system": "HCT-116"}, "HT-29": {"system": "HT-29"}, "KM12": {"system": "KM12"}, "786-0": {"system": "786-0"}, "HOP-18": {"system": "HOP-18"}, "MOLT-4": {"system": "MOLT-4"}, "ACHN": {"system": "ACHN"}, "OVCAR-8": {"system": "OVCAR-8"}, "IGROV-1": {"system": "IGROV-1"}, "NCI-H226": {"system": "NCI-H226"}, "KM-20L2": {"system": "KM-20L2"}, "HL-60": {"system": "HL-60"}, "K562": {"system": "K562"}, "OVCAR-5": {"system": "OVCAR-5"}, "HOP-92": {"system": "HOP-92"}, "DMS-273": {"system": "DMS-273"}, "TK-10": {"system": "TK-10"}, "A498": {"system": "A498"}, "CAKI-1": {"system": "CAKI-1"}, "M14": {"system": "M14"}, "U-251": {"system": "U-251"}, "EKVX": {"system": "EKVX"}}, "note": "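Five compound concentrations were applied to cells in 96-well plates for 48 hours; endpoints were derived by simple linear interpolation of the resulting dose-response curve. Here, GI50 denotes the concentration required for 50% inhibition of growth.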 The source made the active and inactive calls. No stated cut-off is given here; in the data, active = GI50 up to about 1.1 µM and inactive = higher."}
{"smiles": "CC1(C)OCC([C@H]2CC23SCCCS3)O1", "note": "(some centres not stated)", "values": [{"measurement": "GI50", "setting": "SK-MEL-28", "result": "> 100 µM (inactive)"}, {"measurement": "GI50", "setting": "COLO 205", "result": "> 100 µM (inactive)"}, {"measurement": "GI50", "setting": "A549", "result": "> 100 µM (inactive)"}, {"measurement": "GI50", "setting": "SNB-75", "result": "> 100 µM (inactive)"}, {"measurement": "GI50", "setting": "SF-268", "result": "> 100 µM (inactive)"}, {"measurement": "GI50", "setting": "RXF 393", "result": "> 100 µM (inactive)"}, {"measurement": "GI50", "setting": "SNB-78", "result": "> 100 µM (inactive)"}, {"measurement": "GI50", "setting": "OVCAR-4", "result": "> 100 µM (inactive)"}, {"measurement": "GI50", "setting": "DLD-1", "result": "> 100 µM (inactive)"}, {"measurement": "GI50", "setting": "SF-295", "result": "> 100 µM (inactive)"}, {"measurement": "GI50", "setting": "NCI-H23", "result": "> 100 µM (inactive)"}, {"measurement": "GI50", "setting": "SK-OV-3", "result": "> 100 µM (inactive)"}, {"measurement": "GI50", "setting": "SK-MEL-2", "result": "> 100 µM (inactive)"}, {"measurement": "GI50", "setting": "Malme-3M", "result": "> 100 µM (inactive)"}, {"measurement": "GI50", "setting": "UACC-257", "result": "> 100 µM (inactive)"}, {"measurement": "GI50", "setting": "HCT-15", "result": "> 100", "unit": "µM"}, {"measurement": "GI50", "setting": "UACC-62", "result": "> 100 µM (inactive)"}, {"measurement": "GI50", "setting": "SK-MEL-5", "result": "> 100 µM (inactive)"}, {"measurement": "GI50", "setting": "NCI-H460", "result": "> 100 µM (inactive)"}, {"measurement": "GI50", "setting": "SF-539", "result": "> 100 µM (inactive)"}, {"measurement": "GI50", "setting": "HOP-62", "result": "> 100 µM (inactive)"}, {"measurement": "GI50", "setting": "NCI-H522", "result": "> 100 µM (inactive)"}, {"measurement": "GI50", "setting": "DMS-114", "result": "> 100 µM (inactive)"}, {"measurement": "GI50", "setting": "SR", "result": "> 100 µM (inactive)"}, {"measurement": "GI50", "setting": "LXFL 529", "result": "> 100 µM (inactive)"}, {"measurement": "GI50", "setting": "XF498", "result": "> 100 µM (inactive)"}, {"measurement": "GI50", "setting": "SN12C", "result": "> 100 µM (inactive)"}, {"measurement": "GI50", "setting": "RPMI-8226", "result": "> 100 µM (inactive)"}, {"measurement": "GI50", "setting": "SNB-19", "result": "> 100 µM (inactive)"}, {"measurement": "GI50", "setting": "UO-31", "result": "> 100 µM (inactive)"}, {"measurement": "GI50", "setting": "HCT-116", "result": "> 100 µM (inactive)"}, {"measurement": "GI50", "setting": "HT-29", "result": "> 100 µM (inactive)"}, {"measurement": "GI50", "setting": "KM12", "result": "> 100 µM (inactive)"}, {"measurement": "GI50", "setting": "786-0", "result": "> 100 µM (inactive)"}, {"measurement": "GI50", "setting": "HOP-18", "result": "> 100 µM (inactive)"}, {"measurement": "GI50", "setting": "MOLT-4", "result": "> 100 µM (inactive)"}, {"measurement": "GI50", "setting": "ACHN", "result": "> 100 µM (inactive)"}, {"measurement": "GI50", "setting": "OVCAR-8", "result": "> 100 µM (inactive)"}, {"measurement": "GI50", "setting": "IGROV-1", "result": "> 100 µM (inactive)"}, {"measurement": "GI50", "setting": "NCI-H226", "result": "> 100 µM (inactive)"}, {"measurement": "GI50", "setting": "KM-20L2", "result": "> 100 µM (inactive)"}, {"measurement": "GI50", "setting": "HL-60", "result": "> 100 µM (inactive)"}, {"measurement": "GI50", "setting": "K562", "result": "> 100 µM (inactive)"}, {"measurement": "GI50", "setting": "OVCAR-5", "result": "> 100 µM (inactive)"}, {"measurement": "GI50", "setting": "HOP-92", "result": "51.8 µM (inactive)"}, {"measurement": "GI50", "setting": "DMS-273", "result": "> 100 µM (inactive)"}, {"measurement": "GI50", "setting": "TK-10", "result": "> 100 µM (inactive)"}, {"measurement": "GI50", "setting": "A498", "result": "> 100 µM (inactive)"}, {"measurement": "GI50", "setting": "CAKI-1", "result": "> 100 µM (inactive)"}, {"measurement": "GI50", "setting": "M14", "result": "> 100 µM (inactive)"}, {"measurement": "GI50", "setting": "U-251", "result": "> 100 µM (inactive)"}, {"measurement": "GI50", "setting": "EKVX", "result": "> 100 µM (inactive)"}]}
